Measurements taken from PubChem BioAssay AID1996.
In brackets after ≈: the same amount, converted by molar mass.

Conditions: buffer; pH 7.4; 200.0 µM

Compound	solubility kinetic [µg/mL]
CCCC(=O)NC(=S)Nc1ccc(CN2CCOCC2)cc1	> 48.2
CC(=O)c1cccc(NC(=S)N2CCCC2)c1	> 37.3
Cc1csc(NC(=O)c2c(-c3ccccc3)noc2C)n1	37.4 (≈ 125 µM)
Cc1ccc(NC(=O)C/C(N)=N/OC(=O)c2ccccc2)cc1	2.2 (≈ 7.07 µM)
O=C(O)c1ccccc1-c1ccccc1C(=O)Nc1cccc(Br)c1	53.6 (≈ 135 µM)
CCCCNC(=O)COC(=O)c1ccccc1F	37.9 (≈ 150 µM)
O=C(COC(=O)c1ccccc1Br)NCC1CCCO1 (configuration not stated)	> 51.3
CCCCCCCNC(=O)c1cc(-c2ccncc2)nc2ccccc12	0.8 (≈ 2.3 µM)
CC12CC3(C)CC(C)(C1)CC(C(N)=O)(C2)C3	31 (≈ 140 µM)
OCC(O)CN1CCCC1 (configuration not stated)	21.4 (≈ 147 µM)
COC(=O)/C=C1\N/C(=N/c2nc(C)c3cc(OC)ccc3n2)NC1=O	1.4 (≈ 4.1 µM)
Cn1c(N)cc(-c2ccc(F)cc2)c(C#N)c1=O	> 36.5
Cc1cn2c(nc1=O)OC1CC2OC1CO (configuration not stated)	> 33.6
O=C(Nc1ccccc1)OCC1CCCO1 (configuration not stated)	> 33.2
CCOc1ccc2[nH]c3c(NCCOC)ncnc3c2c1	> 42.9
Cc1cc2c(cc1C)C(c1ccccc1F)CC(=O)N2 (configuration not stated)	< 0.6
O=C(CSc1ccccc1)NCCc1ccc(F)cc1	34.9 (≈ 121 µM)
COc1ccccc1C(=O)NCCC(=O)NCC1CCCO1 (configuration not stated)	> 46
CCCC1/C(=N/O)CC(c2ccccc2)NC1c1ccccc1 (configuration not stated)	< 0.3
O=C(Nc1cccc(Cl)c1)Nc1ccc2nccnc2c1	1.7 (≈ 5.69 µM)
CN1CC(=O)Nc2ccc(Br)cc2C1=O	> 40.4
CCN(C(=O)COC(=O)c1ccc2c(c1)OCO2)c1ccc(F)cc1	10.4 (≈ 30.1 µM)
NC(=S)c1ncc(C(F)(F)F)cc1Cl	30.4 (≈ 126 µM)
Cc1cc(C)c2c(CC(=O)O)c(C)[nH]c2c1	28.5 (≈ 131 µM)

Compound	solubility kinetic [µg/mL]
Nc1nnc(CC(=O)Nc2ccccc2)s1	> 35.1
OC(CC#CCN1CCCCC1)(c1ccccc1)c1ccccc1	> 47.9
Cc1ccc(NC(=S)N2CCCCCC2)c(C)c1	> 39.4
Cc1cccc(C)c1NC(=O)COC(=O)C1CC1	32.7 (≈ 132 µM)
CC(C)(C)c1cc(CN(CCO)CCO)c(O)c(C(C)(C)C)c1	38.7 (≈ 120 µM)
O=C(NC(=S)N1CCOCC1)c1ccccc1Cl	> 42.7
O=C(CC(c1ccccc1)c1ccccc1)Nc1ccc(O)cc1	31.7 (≈ 99.9 µM)
CCc1nc(SCc2ccccn2)[nH]c(=O)c1C	> 39.2
Cn1c(=O)[nH]c(=O)c2c1nc(N)n2Cc1ccccc1	> 40.7
FC(F)(F)Oc1ccc(-c2cn3cccnc3n2)cc1	8.5 (≈ 30.4 µM)
Oc1ccc(NCc2ccc(OCc3ccccc3)cc2)cc1	9.7 (≈ 31.8 µM)
O=C(NCC(=O)N1CCOCC1)c1ccc(Cl)c(Cl)c1	> 47.6
Cc1cc(NC(=O)CN2C(=O)NC(C)(CC(C)C)C2=O)no1 (configuration not stated)	> 46.3
O=C(CSCc1ccccc1Cl)NCCSc1ccccn1	50.4 (≈ 143 µM)
O=C(O)c1ccccc1-c1cc2ccccc2[nH]1	29.9 (≈ 126 µM)
O=C(Nc1cccs1)Nc1cccnc1Cl	> 38.1
COCCNC(=O)C(NC(=O)C1CCCCC1)C(C)C (configuration not stated)	> 42.7
Cc1csc2c(=O)sc(NC(=O)c3ccc(F)cc3)nc12	< 0.3
CCOc1ccc(/C=C/C(=O)NC2CCCCC2)cc1	< 0.6
CC(=O)N(C)c1ccc(NC(=S)NC(=O)/C=C/c2ccco2)cc1	11.6 (≈ 33.8 µM)
Clc1nssc1=Nc1ccc(Br)cc1	1.4 (≈ 4.55 µM)
Fc1ccccc1CNc1ncnc2sccc12	9.9 (≈ 38.2 µM)
O=c1cc(CCl)nc2scc(-c3ccccc3)n12	> 41.5

The remaining lines, values ahead:

solubility kinetic [µg/mL]	Compound
26.3 (≈ 99.9 µM)	Cc1cc(C(=O)Nc2ccncc2)c2ccccc2n1
> 47.7	Cc1ccc(C(C[N+](=O)[O-])c2c(N)n(C)c(=O)n(C)c2=O)cc1 (configuration not stated)
> 60.4	CCCn1c(SCC(=O)NCCCN2CCCC2=O)nc2ccccc2c1=O
> 58.3	COc1ccc(NC(=O)/C(C#N)=C/c2ccc(-c3ccccc3C(=O)O)o2)cc1
58.4 (≈ 143 µM)	Cc1ccc(S(=O)(=O)N2CCC(C(=O)NCCN3CCOCC3)CC2)cc1C
42.3 (≈ 135 µM)	CCOc1ccc(C(=O)N2CCN(c3ncccn3)CC2)cc1
34.8 (≈ 120 µM)	O=[N+]([O-])c1ccc(C(O)C23CN4CN(CN(C4)C2)C3)cc1 (configuration not stated)
> 52.7	O=C(CCc1nc2ccccc2s1)N1CCN(c2ccccc2)CC1
13.2 (≈ 36.1 µM)	Nc1cc(S(=O)(=O)Nc2ccccc2Cl)ccc1N1CCCCC1
1.4 (≈ 5.59 µM)	O=[N+]([O-])c1ccc(Nc2nccc(Cl)n2)cc1
> 41.5	CCCCOc1ccc(C2(C)NC(=O)N(C)C2=O)cc1 (configuration not stated)
57.4 (≈ 145 µM)	COc1ccc(C(=O)N2CCC2)cc1S(=O)(=O)NCc1ccc(Cl)cc1
> 47.5	O=C(Cc1ccc(F)cc1)N1CCN(c2ccc(F)cc2)CC1
8.8 (≈ 27.2 µM)	COc1ccc(CCC(=O)NCCc2nc3ccccc3[nH]2)cc1
32.7 (≈ 130 µM)	Cc1cccc(-n2c(C)c(C)c3c(N)ncnc32)c1
36.2 (≈ 112 µM)	N#C/C(=C\c1c(F)cccc1Cl)S(=O)(=O)c1ccccn1
> 70.7	Cc1ccc(-n2c(SCC(=O)N(C)C3CCS(=O)(=O)C3)nc3ccccc3c2=O)c(C)c1 (configuration not stated)
3.3 (≈ 10.7 µM)	COc1ccc2nc(C)cc(Nc3cccc(C(=O)O)c3)c2c1
> 37.5	COc1ccc(C(=O)C[N+]2(C)CCOCC2)cc1.[I-]
> 47.8	Cc1ccc(NC(=O)C2CCCN2C(=O)OC(C)(C)C)cc1C (configuration not stated)

solubility kinetic [µg/mL]	Compound
35.8 (≈ 115 µM)	Cc1ccc(C)c(N(CC(=O)N2CCCC2)S(C)(=O)=O)c1
> 37.4	COc1ccc(N)cc1NC(=O)CN1CCCC1
7.5 (≈ 21.7 µM)	NC(=O)COC(=O)c1ccc2c(c1)S(=O)(=O)c1ccccc1C2=O
11.9 (≈ 25 µM)	COc1cccc(N2CCN(c3ccc(S(=O)(=O)N4CCN(C)CC4)cc3[N+](=O)[O-])CC2)c1
31.3 (≈ 101 µM)	Cc1ccc(N2CC(C(=O)Nc3cccnc3)CC2=O)cc1C (configuration not stated)
21.6 (≈ 43.3 µM)	CN(CC(=O)Nc1ccccc1Cl)C(=O)c1ccc(Cl)c(S(=O)(=O)N2CCCCCC2)c1
0.5 (≈ 1.39 µM)	COc1cccc(CC(=O)Nc2nc(-c3ccc(F)c(F)c3)cs2)c1
3.9 (≈ 11.5 µM)	Cc1ccc(NC(=O)Cn2cnc3cc([N+](=O)[O-])ccc3c2=O)cc1
> 50.5	O=C1CCc2cc(S(=O)(=O)Nc3ccccc3Cl)ccc2N1
2.2 (≈ 6.56 µM)	Cc1cc(C(=O)Nc2ccc(S(=O)(=O)N3CCCC3)cc2)no1
5.1 (≈ 16.9 µM)	O=C(Nc1cc2c(cc1[N+](=O)[O-])OCCO2)c1cccnc1
11 (≈ 38.6 µM)	COc1ccc(-n2c(=S)[nH]c(=O)c3cccnc32)cc1
> 49	COc1ccc(C(=O)N2CCC3(CC2)NCCc2[nH]cnc23)cc1
4.6 (≈ 16.4 µM)	Cc1cccc(OCCN2C(=O)c3ccccc3C2=O)c1
40.9 (≈ 130 µM)	CN1C(C(=O)c2ccccc2)=C(N)c2ccccc2S1(=O)=O
4.7 (≈ 15 µM)	COc1ccc(OC)c(/C=C/C(=O)Nc2ccc(OC)nc2)c1
30.6 (≈ 98.3 µM)	COc1cccc(C(=O)Nc2ccccc2OC(F)(F)F)c1
2 (≈ 6.73 µM)	O=[N+]([O-])c1cccc(CSc2ncnc3ccccc23)c1
> 45.7	Cc1ccnc(NC(=O)CCS(=O)(=O)c2ccccc2)c1
1.4 (≈ 4.74 µM)	CC(=O)Oc1ccc2oc(-c3ccccc3)c(C(N)=O)c2c1
